Reference: ChEMBL document CHEMBL1671621, “Efficient clearance of Aspergillus fumigatus in murine lungs by an ultrashort antimicrobial lipopeptide, palmitoyl-lys-ala-DAla-lys” (Antimicrob Agents Chemother, 2008)
Values after ≈ are worked out from the molar mass of the structure shown. Active and inactive are the calls of the source. The calls are words filed in the database; no cut-off is given here. Where a SMILES comes first, the peptide text is derived from it. [ ]: non-standard residue; d: D form. The star is where a group is joined. Palmitoyl = CCCCCCCCCCCCCCCC(=O)*; Lauroyl = CCCCCCCCCCCC(=O)*

Tests used:
[1] = system: Aspergillus fumigatus; experiment: Antifungal activity against Aspergillus fumigatus CBS 144.89 by CLSI […] method; format: functional
[2] = Toxicity in human RBC assessed as hemolysis at 20 uM; format: cell-based, Erythrocyte; conditions: red blood cells (RBC), read-out: Activity
[3] = Toxicity in human RBC assessed as hemolysis at 50 uM; format: cell-based, Erythrocyte; conditions: red blood cells (RBC), read-out: Activity
[4] = system: Aspergillus fumigatus; experiment: Antifungal activity against DsRed-labeled Aspergillus fumigatus CBS 144.89 infected in immunocompromized C57BL/6 mouse assessed fungal hyphae degradation in lung at 4.5 mg/kg qd administered intratracheally for 4 days relative to untreated control; format: functional, organism-based; design: dose 4.5 mg/kg
[5] = system: Aspergillus fumigatus; experiment: (§1) Antifungal activity against DsRed-labeled Aspergillus fumigatus CBS 144.89 infected in transgenic C57BL/6 Cx3cr1 gfp/+ mouse assessed as macrophages phygocytosed-fungal conidia at 4.5 mg/kg qd administered intratracheally for 4 days relative to untreated control; format: functional, organism-based; design: dose 4.5 mg/kg
[6] = system: Aspergillus fumigatus; experiment: Antifungal activity against Aspergillus fumigatus CBS 144.89 infected in immunosuppressed wild-type C57BL/6 mouse assessed as increase in survival rate at 4.5 mg/kg administered intratracheally as single dose one day postinfection measured after 14 days relative to untreated control; format: functional, organism-based; design: dose 4.5 mg/kg
[7] = system: Aspergillus fumigatus; experiment: Antifungal activity against Aspergillus fumigatus CBS 144.89 infected in immunosuppressed wild-type C57BL/6 mouse assessed as increase in survival rate at 4.5 mg/kg administered intratracheally for 4 days from the day of infection measured after 14 days relative to untreated control; format: functional, organism-based; design: dose 4.5 mg/kg
[8] = system: Aspergillus fumigatus; experiment: Antifungal activity against Aspergillus fumigatus CBS 144.89 infected in immunosuppressed wild-type C57BL/6 mouse assessed as clearance of fungal forms in lung at 4.5 mg/kg administered intratracheally on days 1, 4, 7 and 11 one day post infection measured after 21 days relative to untreated control; format: functional, organism-based; design: dose 4.5 mg/kg
[9] = system: Mus musculus; experiment: Toxicity in immunosuppressed C57BL/6 mouse assessed as mild multifocal interstitial plasmacytic infiltration at 4.5 mg/kg administered intratracheally on days 1, 4, 7 and 11 one day post infection; format: organism-based; design: dose 4.5 mg/kg, route endotracheal; conditions: in vivo, inhaled_or_intranasal
[10] = system: Mus musculus; experiment: Toxicity in immunosuppressed C57BL/6 mouse assessed as mild multifocal interstitial plasmacytic infiltration at 1 mg/kg administered intratracheally on days 1, 4, 7 and 11 one day post infection; format: organism-based; design: dose 1 mg/kg, route endotracheal; conditions: in vivo, inhaled_or_intranasal
[11] = system: Aspergillus fumigatus; experiment: Antifungal activity against Aspergillus fumigatus CBS 144.89 infected in immunosuppressed wild-type C57BL/6 mouse assessed as recovery from infection at 4.5 mg/kg administered intratracheally on days 1, 4, 7 and 11 one day post infection measured after 21 days relative to untreated control; format: functional; conditions: route endotracheal
[12] = system: Aspergillus fumigatus; experiment: Antifungal activity against Aspergillus fumigatus CBS 144.89 infected in immunosuppressed wild-type C57BL/6 mouse assessed as increase in survival rate at 4.5 mg/kg administered intratracheally on days 1, 4, 7 and 11 one day post infection measured after 21 days relative to untreated control; format: functional, organism-based; design: dose 4.5 mg/kg
[13] = system: Aspergillus fumigatus; experiment: as §1, with “gfp/+mouse” for “gfp/+ mouse”, “decrease in residual fungal spore colocalized with macrophage and dendritic cell” for “macrophages phygocytosed-fungal conidia”; format: functional, organism-based; design: dose 4.5 mg/kg
[14] = system: Aspergillus fumigatus; experiment: Antifungal activity against DsRed-labeled Aspergillus fumigatus CBS 144.89 infected in immunocompromized mouse assessed as macrophages phygocytosed-fungal conidia at 4.5 mg/kg qd administered intratracheally for 4 days relative to untreated control; format: functional, organism-based; design: dose 4.5 mg/kg
[15] = system: Aspergillus fumigatus; experiment: Antifungal activity against DsRed-labeled Aspergillus fumigatus CBS 144.89 infected in immunocompromized mouse assessed as decrease in residual fungal spore colocalized with macrophage and dendritic cell at 4.5 mg/kg qd administered intratracheally for 4 days relative to untreated control; format: functional, organism-based; design: dose 4.5 mg/kg
[16] = system: Aspergillus fumigatus; experiment: Antifungal activity against DsRed-labeled Aspergillus fumigatus CBS 144.89 infected in immunocompromized C57BL/6 mouse assessed fungal hyphae degradation in lung at 1 mg/kg qd administered intratracheally for 4 days relative to untreated control; format: functional, organism-based; design: dose 1 mg/kg
[17] = system: Mus musculus; experiment: Toxicity in immunosuppressed C57BL/6 mouse assessed as macrophage infiltration in the airways at 1 to 4.5 mg/kg administered intratracheally on days 1, 4, 7 and 11 one day post infection; format: organism-based; design: dose 1-4.5 mg/kg, route endotracheal; conditions: in vivo, inhaled_or_intranasal
[18] = system: Mus musculus; experiment: Toxicity in immunosuppressed C57BL/6 mouse assessed as vasculitis at 1 to 4.5 mg/kg administered intratracheally on days 1, 4, 7 and 11 one day post infection; format: organism-based; design: dose 1-4.5 mg/kg, route endotracheal; conditions: in vivo, inhaled_or_intranasal
[19] = system: Mus musculus; experiment: Toxicity in immunosuppressed C57BL/6 mouse assessed as edema at 1 to 4.5 mg/kg administered intratracheally on days 1, 4, 7 and 11 one day post infection; format: organism-based; design: dose 1-4.5 mg/kg, route endotracheal; conditions: in vivo, inhaled_or_intranasal
[20] = system: Mus musculus; experiment: Toxicity to immunosuppressed C57BL/6 mouse assessed as airway infiltration of neutrophils at 1 to 4.5 mg/kg administered intratracheally on days 1, 4, 7 and 11 one day post infection; format: organism-based; design: dose 1-4.5 mg/kg, route endotracheal; conditions: in vivo, inhaled_or_intranasal
[21] = system: Mus musculus; experiment: Toxicity in immunosuppressed C57BL/6 mouse assessed as blood vessel formation at 1 to 4.5 mg/kg administered intratracheally on days 1, 4, 7 and 11 one day post infection; format: organism-based; design: dose 1-4.5 mg/kg, route endotracheal; conditions: in vivo, inhaled_or_intranasal
[22] = system: Mus musculus; experiment: Toxicity in immunosuppressed C57BL/6 mouse assessed as hemorrhages at 1 to 4.5 mg/kg administered intratracheally on days 1, 4, 7 and 11 one day post infection; format: organism-based; design: dose 1-4.5 mg/kg, route endotracheal; conditions: in vivo, inhaled_or_intranasal
[23] = system: Aspergillus fumigatus; experiment: Antifungal activity against Aspergillus fumigatus CBS 144.89 infected in immunosuppressed wild-type C57BL/6 mouse assessed as increase in survival rate at 1 mg/kg administered intratracheally as single dose one day postinfection measured after 14 days relative to untreated control; format: functional, organism-based; design: dose 1 mg/kg
[24] = system: Aspergillus fumigatus; experiment: Antifungal activity against Aspergillus fumigatus CBS 144.89 infected in immunosuppressed wild-type C57BL/6 mouse assessed as increase in survival rate at 1 mg/kg administered intratracheally for 4 days from the day of infection measured after 14 days relative to untreated control; format: functional, organism-based; design: dose 1 mg/kg

Work on CCCCCCCCCCCCCCCC(=O)N[C@@H](CCCCN)C(=O)N[C@@H](CC(C)C)C(=O)N[C@H](CC(C)C)C(=O)N[C@@H](CCCCN)C(=O)O yielded an MIC [1] of 2 µg/mL (≈ 2.71 µM), a hemolysis at 20 µM [2] of 9% and a hemolysis at 50 µM [3] of 45%.

In the case of CCCCCCCCCCCCCCCC(=O)N[C@@H](CCCCN)C(=O)N[C@@H](CCCCN)C(=O)N[C@H](CCCCN)C(=O)N[C@@H](CCCCN)C(=O)O (Palmitoyl-KK[dK]K-OH), the MIC [1] is reported as 38.4 µg/mL (≈ 49.9 µM), the hemolysis at 20 µM [2] is reported as 0% and the hemolysis at 50 µM [3] is reported as 6%.

For CCCCCCCCCCCCCCCC(=O)N[C@@H](CCCCN)C(=O)N[C@@H](C)C(=O)N[C@H](C)C(=O)N[C@@H](CCCCN)C(=O)O (Palmitoyl-KA[dA]K-OH), the MIC [1] was 8 µg/mL (≈ 12.2 µM), the hemolysis at 20 µM [2] was 0% and the hemolysis at 50 µM [3] was 3%. The Activity [4] was “Active”, the Activity [5] was “Active” and the Activity [6] was “Active”. The Activity [7] was “Active”, the Activity [8] was “Active” and the Activity [9] was “Toxic”. For the same compound, the Activity [10] was “Toxic”, the Activity [11] was 25% and the Activity [12] was “Active”. The Activity [13] was “Active”, the Activity [14] was “Active” and the Activity [15] was “Active”.

With C[C@@H]1[C@H](O)[C@@H](C)/C=C/C=C/C=C/C=C/C=C/C=C/C=C/[C@H](O[C@@H]2O[C@H](C)[C@@H](O)[C@H](N)[C@@H]2O)C[C@@H]2O[C@](O)(C[C@@H](O)C[C@@H](O)[C@H](O)CC[C@@H](O)C[C@@H](O)CC(=O)O[C@H]1C)C[C@H](O)[C@H]2C(=O)O [AMPHOTERICIN B] the MIC [1] was 11.5 µg/mL (≈ 12.4 µM), the Activity [16] was “inactive” and the Activity [17] was “Toxic”. The Activity [18] was “Toxic”, the Activity [19] was “Toxic” and the Activity [20] was “Toxic”. For the same compound, the Activity [21] was “Toxic”, the Activity [22] was “Toxic” and the Activity [23] was “inactive”. The Activity [24] was “inactive”.

Work on CCCCCCCCCCCCCC(=O)N[C@@H](CCCCN)C(=O)N[C@@H](CC(C)C)C(=O)N[C@H](CC(C)C)C(=O)N[C@@H](CCCCN)C(=O)O yielded an MIC [1] of 9 µg/mL (≈ 12.7 µM), a hemolysis at 20 µM [2] of 13% and a hemolysis at 50 µM [3] of 50%.

Work on CCCCCCCCCCCC(=O)N[C@@H](CC(=O)O)C(=O)N[C@@H](CC(C)C)C(=O)N[C@@H](CCCCN)C(=O)N[C@@H](CCCCN)C(=O)N[C@@H](CC(C)C)C(=O)N[C@@H](CC(C)C)C(=O)N[C@@H](CCCCN)C(=O)N[C@@H](CCCCN)C(=O)N[C@@H](CC(C)C)C(=O)N[C@@H](CC(C)C)C(=O)N[C@@H](CCCCN)C(=O)N[C@@H](CCCCN)C(=O)N[C@@H](CC(C)C)C(=O)O (Lauroyl-DLKKLLKKLLKKL-OH) yielded an MIC [1] of 20.8 µg/mL (≈ 11.8 µM), a hemolysis at 20 µM [2] of 0% and a hemolysis at 50 µM [3] of 0%. The Activity [4] was “Active”.

For CCCCCCCCCCCC(=O)N[C@@H](CCCCN)C(=O)N[C@@H](CC(C)C)C(=O)N[C@H](CC(C)C)C(=O)N[C@@H](CCCCN)C(=O)O (Lauroyl-KL[dL]K-OH), the MIC [1] was 34 µg/mL (≈ 49.8 µM), the hemolysis at 20 µM [2] was 0% and the hemolysis at 50 µM [3] was 0%.
